One data set concerns the target T1, CB2 receptors (Mus musculus, UniProt P47936).
T1 construct: the complete brain (excluding the cerebellum) and the spleen were quickly dissected and kept in ice; from tissue; host or cells: mouse spleen, membrane preparation
As to the kind of experiment: radioreceptor binding, displacement of [3H]-CP-55,940, CB2 (spleen). The method, then:
(§1) The affinity of the compounds towards the CB1 and CB2 cannabinoidergic receptors was evaluated in vitro by radioreceptor binding studies using the following method.
(§2) The technique of the receptor binding allows to establish if, and with which affinity and specificity, a specific compound binds to a particular receptor. To evaluate the affinity of a specific compound to a particular receptor it is necessary to challenge in a particular tissue preparation wherein those specific receptors are present the compound to be tested with a radioactive labelled compound whose affinity for the same receptors is known. […] The amount of radioactivity present in the receptor-compound complex allows furthermore to stimate with great accuracy the amount of compound bound to the receptor. By said method it is therefore possible to stablish quickly the affinity of a new compound towards a specific receptor and thus to determine its pharmacological activity. With the same experimental protocol it is possible to evaluate the affinity of the compound towards other receptors and thus establish its specificity degree toward said other receptors.
(§3) The food and water were ad libitum.
(§4) The procedure adopted, based on the use of the compound [^3H]-CP-55,940 (New England Nuclear, Boston, Mass., USA), requires the use of the mouse brain as biological tissue for the evaluation of the affinity towards the CB1 receptors and of the mouse spleen for the affinity assay for the CB2 receptors.
(§5) The animals were sacrificed by cervical dislocation and the complete brain (excluding the cerebellum) and the spleen were quickly dissected and kept in ice.
(§6) The tissue was homogenized in 15 volumes (weight/-volume) of TME buffer (50 Mm Tris, 1 mM EDTA and 3 mM MgCl2, pH 7.4) by an Ultra-Turrax and subsequently centrifuged for 10 minutes at 1086×g in a centrifuge refrigerated at 4° C. The recovered supernatant was centrifuged at 45,000×g for 30 minutes at 4° C. by using a Beckman SW41 rotor and the obtained pellet was resuspended in 50 volumes of TME.
(§7) The thus obtained membranes (50-80 μg of proteins) were incubated in the presence of 1 nM of [^3H]-CP55.940 for 1 hour at 30° C. in a final volume of 0.5 ml of TME buffer containing […] (BSA). The non specific binding was measured in the presence of CP55.940 at a 1 μM concentration.
(§8) All the experiments were carried out in polypropylene test tubes pretreated with Sigma-Cote (Sigma Chemical Co. Ltd., Poole, UK) for reducing non specific binding.
(§9) In order to determine the competitive inhibition binding curves, eight different concentrations of each compound were used.
(§10) Incubation was stopped by addition of TME buffer (at 4° C.) containing 5 mg/ml of BSA, and subsequent filtration under vacuum by Whatman GFC filters pretreated with 0.5% of polyethylamine (PEI) and by using a filtering device (Brandell, Gaithersburg, Md., USA). The filters were washed 3 times with 5 ml of Tris HCl buffer (pH 7.4, 4° C.) containing 1 mg/ml of BSA and separately placed in plastic vials containing 4 ml of scintillating liquid (Ultima Gold MV, Packard).
(§11) The radioactivity present in the filters was determined by a scintillator spectrophotometer (Tricarb® 2100, Packard, Meridien, USA).
(§12) Protein determination was carried out by the Bradford method by using the protocol and the reactants supplied by Bio-Rad (Milano, Italy).
On the technique in general: In a radioligand displacement assay an active substance lowers the binding of a labelled ligand.

For the next data set, the target named is T2, CB1 receptors (Mus musculus, UniProt P47746).
T2 construct: the complete brain (excluding the cerebellum) and the spleen were quickly dissected and kept in ice; from tissue; host or cells: mouse brain (excluding the cerebellum), membrane preparation
T2 sequence (P47746 whole entry): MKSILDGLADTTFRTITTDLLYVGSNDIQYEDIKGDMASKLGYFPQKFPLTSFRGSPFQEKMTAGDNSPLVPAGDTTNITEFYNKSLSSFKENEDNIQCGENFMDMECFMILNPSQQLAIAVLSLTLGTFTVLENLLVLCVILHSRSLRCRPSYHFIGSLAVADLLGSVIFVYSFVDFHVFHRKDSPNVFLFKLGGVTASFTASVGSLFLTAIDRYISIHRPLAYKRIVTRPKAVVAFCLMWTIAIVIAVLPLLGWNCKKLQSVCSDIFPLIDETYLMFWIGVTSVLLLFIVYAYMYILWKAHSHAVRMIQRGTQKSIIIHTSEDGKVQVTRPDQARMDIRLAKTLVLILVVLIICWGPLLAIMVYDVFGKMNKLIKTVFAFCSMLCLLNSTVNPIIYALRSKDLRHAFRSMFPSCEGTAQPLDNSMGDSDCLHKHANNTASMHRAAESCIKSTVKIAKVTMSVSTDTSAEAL
As to the kind of experiment: radioreceptor binding, displacement of [3H]-CP-55,940, CB1 (brain). Here is the method: as §1, §2, §3, §4, §5, §6, §7, §8, §9, §10, §11, §12

Where [1] appears, read: mouse spleen membranes, 1 nM [3H]-CP55.940, 1 hour at 30° C., read-out: CB2 (spleen) Ki.

Where two headings read alike, the source gives them in different places.

This is an account of results in patent US20100215741A1, “PHARMACEUTICAL COMPOUNDS” (priority 2009, published 2010).

As a reminder, the Ki is a measure of affinity in units of concentration, obtained from inhibition or displacement. As usually defined, the melting point is the temperature of the solid-liquid transition.

T1 sequence (P47936 whole entry): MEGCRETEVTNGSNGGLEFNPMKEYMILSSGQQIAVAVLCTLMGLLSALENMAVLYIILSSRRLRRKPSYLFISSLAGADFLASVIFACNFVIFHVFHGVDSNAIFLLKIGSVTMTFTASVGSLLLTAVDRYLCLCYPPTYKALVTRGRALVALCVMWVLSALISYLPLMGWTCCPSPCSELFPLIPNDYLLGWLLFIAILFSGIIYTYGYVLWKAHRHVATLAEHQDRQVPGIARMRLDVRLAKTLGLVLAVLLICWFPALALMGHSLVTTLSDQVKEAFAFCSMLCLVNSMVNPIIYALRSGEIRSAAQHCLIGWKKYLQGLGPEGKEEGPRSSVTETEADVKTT

For `Cc1ccc2c(c1)oc1c(C(=O)N[C@H]3C[C@@H](C)CC[C@@H]3C(C)C)nn(-c3ccc(Cl)cc3Cl)c12` [Example 3.24, N-2-isopropyl-5-methyl-cyclohexyl-1-(2,4-dichlorophenyl)-6-methyl-1H-benzofuro[3,2-c]pyrazole-3-carboxamide], the melting point lay in the range of 70 to 72 °C. In addition, at CB2 receptors (setting [1]), the Ki was found to be 2.3 ± 0.3 nM. Besides, at CB1 receptors, the Ki came to 38.2 ± 6 nM.
On to `CC1(C)C2CCC(CNC(=O)c3nn(-c4ccc(Cl)cc4Cl)c4c3CCCc3ccc(Cl)cc3-4)C1C2` (stereo not shown) [Example 3.1, N-myrtanyl-9-chloro-1-(2′,4′-dichlorophenyl)-1,4,5,6-tetrahydrobenzo[6,7]cyclohepta[1,2-c]pyrazol-3-carboxamide], for which the inhibition constant (Ki) on CB2 receptors (setting [1]) was determined as 23.3 ± 1.6 nM; on CB1 receptors it was 20 ± 5 nM.
The compound `Cc1ccc2c(c1)oc1c(C(=O)NC3C4(C)CCC(C4)C3(C)C)nn(-c3ccc(Cl)cc3Cl)c12` (stereo not shown) [Example 3.26, N-1,3,3-trimethyl-bicyclo[2.2.1]hept-2-yl-1-(2,4-dichlorophenyl)-6-methyl-1H-benzofuro[3,2-c]pyrazole-3-carboxamide] yielded a melting point of 84 to 86 °C. Moreover, the Ki at CB2 receptors worked out at 2.5 ± 0.3 nM. The compound further registered a Ki on CB1 receptors of 257 ± 7 nM.
`Cc1ccc2c(c1)oc1c(C(=O)NC34CC5CC(CC(C5)C3)C4)nn(-c3ccc(Cl)cc3Cl)c12` [Example 3.28, N-adamantan-1yl-1-(2,4-dichlorophenyl)-6-methyl-1H-benzofuro[3,2-c]pyrazole-3-carboxamide] registered a melting point of 210 to 212 °C. In addition, the affinity on CB2 receptors, expressed as Ki, was 28 ± 6.6 nM. Further, on CB1 receptors, affinity was put at a Ki of 363 ± 92 nM.
`Cc1ccc2c(c1)oc1c(C(=O)NN3CCCC3)nn(-c3ccc(Cl)cc3Cl)c12` [Example 3.21, N-pyrrolidinyl-1-(2,4-dichlorophenyl)-6-methyl-1H-benzofuro[3,2-c]pyrazole-3-carboxamide] displayed a melting point of 90 to 92 °C. On CB2 receptors, this compound gave an inhibitory constant (Ki) of 29.5 ± 8 nM. Also, the Ki at CB1 receptors came to 2720 ± 652 nM.
`Cc1ccc2c(c1)oc1c(C(N)=O)nn(-c3ccc(Cl)cc3Cl)c12` [1-(2,4-dichlorophenyl)-6-methyl-1H-benzofuro [3,2-c]pyrazole-3-carboxamide] showed a melting point of 185 to 186 °C.
With `CC1(C)C2CCC(CNC(=O)c3nn(-c4ccc(Cl)cc4Cl)c4c3CCOc3cc(Cl)ccc3-4)C1C2` (stereo not shown) [Example 3.3, N-myrtanyl-8-chloro-1-(2′,4′-dichlorophenyl)-4,5-dihydrobenzo-1H-6oxa-cyclohepta[1,2-c]pyrazol-3-carboxamide], the melting point is 142 to 143 °C. At CB2 receptors (setting [1]), the Ki amounted to 325 ± 38 nM. On CB1 receptors, this compound showed an inhibitory constant (Ki) of 21.7 ± 3 nM.
As to `Cc1ccc2c(c1)oc1c(C(=O)N[C@@H]3C[C@H]4C[C@@H]([C@@H]3C)C4(C)C)nn(-c3ccc(Cl)cc3Cl)c12` [Example 3.25, N-2,6,6-trimethyl-bicyclo[3.1.1]hept-3-yl-1-(2,4-dichlorophenyl)-6-methyl-1H-benzofuro[3,2-c]pyrazole-3-carboxamide], the melting point fell in the range of 85 to 87 °C. The inhibition constant (Ki) at CB2 receptors came to 3.7 ± 0.3 nM. The same compound gave an inhibition constant (Ki) on CB1 receptors of 2400 ± 629 nM.
On to `Cc1ccc2c(c1)oc1c(C(=O)NC3CC4CCC3(C)C4(C)C)nn(-c3ccc(Cl)cc3Cl)c12` (stereo not shown) [Example 3.27, N-1,7,7-trimethyl-bicyclo[2.2.1]hept-2-yl-1-(2,4-dichlorophenyl)-6-methyl-1H-benzofuro[3,2-c]pyrazole-3-carboxamide], for which the melting point was in the range of 78 to 80 °C. The compound further showed a Ki at CB2 receptors of 3.5 ± 0.6 nM. At CB1 receptors, this compound came in with an inhibition constant (Ki) of 469 ± 64 nM.
Take `Cc1ccc2c(c1)Cc1c(C(=O)NCC3CCC4CC3C4(C)C)nn(-c3ccc(Cl)cc3Cl)c1-2` (stereo not shown) [Example 3.15, N-myrtanyl-1-(2′,4′-dichlorophenyl)-6-methyl-1,4-dihydroindeno[1,2-c]pyrazole-3-carboxamide]: the inhibitory constant (Ki) was found to be 2.3 ± 0.5 nM at CB2 receptors (setting [1]) and 350 ± 76 nM at CB1 receptors.
`Cc1ccc2c(c1)oc1c(C(=O)NC3C4CC5CC(C4)CC3C5)nn(-c3ccc(Cl)cc3Cl)c12` (stereo not shown) [Example 3.29, N-adamantan-2-yl-1-(2,4-dichlorophenyl)-6-methyl-1H-benzofuro[3,2-c]pyrazole-3-carboxamide] had a melting point of 209 to 211 °C. This compound also had an inhibition constant Ki on CB2 receptors of 17.5 ± 0.9 nM. In addition, the affinity at CB1 receptors corresponds to a Ki of 537 ± 132 nM.
As to `Cc1ccc2c(c1)oc1c(C(=O)NC3CCCCC3)nn(-c3ccc(Cl)cc3Cl)c12` [Example 3.23, N-cyclohexyl-1-(2,4-dichlorophenyl)-6-methyl-1H-benzofuro[3,2-c]pyrazole-3-carboxamide], the melting point lay in the range of 140 to 142 °C. The Ki on CB2 receptors worked out at 15.6 ± 4 nM. Besides, at CB1 receptors, the affinity, expressed as Ki, was 1250 ± 129 nM.
In turn, `Cc1ccc2c(c1)oc1c(C(=O)NN3CCCCC3)nn(-c3ccc(Cl)cc3Cl)c12` [Example 3.20, N-piperidinyl-1-(2,4-dichlorophenyl)-6-methyl-1H-benzofuro[3,2-c]pyrazole-3-carboxamide] gave a melting point of 155 to 157 °C. The Ki at CB2 receptors worked out at 12.9 ± 1.1 nM. At CB1 receptors, this compound returned an inhibition constant Ki of 1790 ± 330 nM.
In the case of `CC1(C)C2CCC(CNC(=O)c3nn(-c4ccc(Cl)cc4Cl)c4c3CCCc3cc(Cl)ccc3-4)C1C2` (stereo not shown) [Example 3.4, N-myrtanyl-8-chloro-1-(2′,4′-dichlorophenyl)-1,4,5,6-tetrahydrobenzo[6,7]cyclohepta[1,2-c]pyrazol-3-carboxamide], the Ki stood at 19.6 ± 1.5 nM on CB2 receptors (setting [1]) and 2.6 ± 0.17 nM at CB1 receptors.
The compound `Cc1ccc2c(c1)oc1c(C(=O)NN3CCOCC3)nn(-c3ccc(Cl)cc3Cl)c12` [Example 3.22, N-morpholin-4-yl-1-(2,4-dichlorophenyl)-6-methyl-1H-benzofuro[3,2-c]pyrazole-3-carboxamide] yielded a melting point of 178 to 180 °C. The affinity at CB2 receptors corresponds to a Ki of 37.7 ± 6.3 nM. The compound further gave a Ki at CB1 receptors of 4060 ± 64 nM.
